According to US9487490B2, “3-cyclohexenyl and cyclohexyl substituted indole and indazole compounds as RORgammaT inhibitors and uses thereof” (Merck Sharp & Dohme Corp., priority 2012, dated 2016):

What follows are molecules tested against human RORgammaT-Ligand Binding Domain (LBD) (Homo sapiens (Human), UniProt P51449) (assay: RORγ-Ligand Binding Domain TR-FRET assay (co-activator peptide SRC1_2 recruitment)). Settings: Fret IC50 (nM), HIS-tagged RORγ-LBD 3 nM, biotinylated SRC1 LXXLL peptide 100 nM, incubated overnight at 4° C., 665 nm/615 nm signal quotient.
Type: biochemical
Description: Activation of RORgammaT activity can be measured using, e.g., biochemical TR-FRET assay. In such an assay, interaction of cofactor-derived peptides with human RORgammaT-Ligand Binding Domain (LBD) can be measured.
To identify novel antagonists of RORgammaT, an assay was developed which employs the interaction of RORgammaT with its co-activator peptide SRC1_2. […] The RORγ-Ligand Binding Domain TR-FRET Assay was run according to the following protocol.
HIS-tagged RORγ-LBD protein was expressed in SF9 cells using a baculovirus expression system. The RORγ-LBD protein was purified by glutathione sepharose chromatography. Separately, SF9 cells not expressing any recombinant protein were lysed and the lysate was added to the purified RORγ-LBD at 0.25 μl lysate (from 10,000 SF9 cells)/nM purified protein. The mixture was then diluted in assay buffer (50 mM Tris pH 7.0, 50 mM KCl, 1 mM EDTA, 0.1 mM DTT) to obtain RORγ-LBD final concentration of 3 nM in 384-well assay plate.
Compounds to be tested were injected to the assay plate using Acoustic Droplet Ejection technology by Echo 550 liquid handler (Labcyte, Calif.).

Sequence of human RORgammaT-Ligand Binding Domain (LBD) (P51449 269-508): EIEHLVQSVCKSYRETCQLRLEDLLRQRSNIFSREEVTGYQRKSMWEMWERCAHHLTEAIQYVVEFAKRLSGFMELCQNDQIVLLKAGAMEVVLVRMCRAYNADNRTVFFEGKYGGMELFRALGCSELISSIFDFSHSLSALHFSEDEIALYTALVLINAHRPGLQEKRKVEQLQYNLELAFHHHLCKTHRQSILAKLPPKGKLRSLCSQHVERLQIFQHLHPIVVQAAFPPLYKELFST

`CC1(C)C=C(c2nn(C(=O)c3c(Cl)cccc3C(F)(F)F)c3cccc(F)c23)CCC1C(=O)O` (racemic) [Example 10A, (R and S)-4-(1-(2-chloro-6-(trifluoromethyl)benzoyl)-4-fluoro-1H-indazol-3-yl)-2,2-dimethylcyclohex-3-enecarboxylic acid] was tested, and the IC50 was 343 nM.

Same assay, conditions: HIS-tagged RORγ-LBD 3 nM, biotinylated SRC1 LXXLL peptide 100 nM, incubated overnight at 4° C., 665 nm/615 nm signal quotient; read-out: Fret IC50

Point of comparison: `COC1CN(C(=O)c2ccc3c(C4=CC[C@](C)(C(=O)O)CC4)nn(C(=O)c4c(Cl)cccc4C4CC4)c3c2)C1` (single isomer, unassigned) [Example 2C, (R or S)-4-(1-(2-chloro-6-cyclopropylbenzoyl)-6-(3-methoxyazetidine-1-carbonyl)-1H-indazol-3-yl)-1-methylcyclohex-3-enecarboxylic acid], IC50 4 nM. Against it:
- O=C(O)C1CC=C(c2nn(C(=O)c3c(Cl)cccc3C(F)(F)F)c3cc(C(=O)N4CCC4)ccc23)CC1 (stereo not shown) [Example 4D, 4-(6-(azetidine-1-carbonyl)-1-(2-chloro-6-(trifluoromethyl)benzoyl)-1H-indazol-3-yl)cyclohex-3-enecarboxylic acid] — 44-fold higher, 177 nM
- O=C(O)C1CCC(c2nn(C(=O)c3c(Cl)cccc3C(F)(F)F)c3cccc(F)c23)=CC1O (stereo not shown) [Example 6A, 4-(1-(2-chloro-6-(trifluoromethyl)benzoyl)-4-fluoro-1H-indazol-3-yl)-2-hydroxycyclohex-3-enecarboxylic acid] — 2-fold lower, 2 nM
- O=C(O)C1CC=C(c2nn(C(=O)c3c(Cl)cccc3C(F)(F)F)c3cc(C(=O)N4CCCC4)ccc23)CC1 (stereo not shown) [Example 4F, 4-(1-(2-chloro-6-(trifluoromethyl)benzoyl)-6-(pyrrolidine-1-carbonyl)-1H-indazol-3-yl)cyclohex-3-enecarboxylic acid] — 7.5-fold higher, 30 nM
- O=C(c1c(Cl)cccc1C(F)(F)F)n1nc([C@H]2CC[C@@H](C(=O)O)CC2)c2ncccc21 [Example 11B, (cis)-4-(1-(2-chloro-6-(trifluoromethyl)benzoyl)-1H-pyrazolo[4,3-b]pyridin-3-yl)cyclohexanecarboxylic acid] — 2500-fold higher, 10000 nM
- O=C(O)C1CC=C(c2nn(C(=O)c3c(Cl)cccc3C(F)(F)F)c3cc(C(=O)N4CC(F)C4)ccc23)CC1 (stereo not shown) [Example 4X, 4-(1-(2-chloro-6-(trifluoromethyl)benzoyl)-6-(3-fluoroazetidine-1-carbonyl)-1H-indazol-3-yl)cyclohex-3-enecarboxylic acid] — within 1.5-fold, 3 nM
- CN(C(=O)c1ccc2c(C3=CCC(C(=O)O)CC3)nn(C(=O)c3c(Cl)cccc3C(F)(F)F)c2c1)C1CCCCC1 (stereo not shown) [Example 4K, 4-(1-(2-chloro-6-(trifluoromethyl)benzoyl)-6-(cyclohexyl(methyl)carbamoyl)-1H-indazol-3-yl)cyclohex-3-enecarboxylic acid] — 24-fold higher, 94 nM
- O=C(NC1CC1)c1ccc2c(C3=CCC(C(=O)O)CC3)nn(C(=O)c3c(Cl)cccc3C(F)(F)F)c2c1 (stereo not shown) [Example 4B, 4-(1-(2-chloro-6-(trifluoromethyl)benzoyl)-6-(cyclopropylcarbamoyl)-1H-indazol-3-yl)cyclohex-3-enecarboxylic acid] — 36-fold higher, 143 nM
- O=C(O)C1CC=C(c2nn(C(=O)c3c(Cl)cccc3C(F)(F)F)c3cc(C(=O)N4CCOCC4)ccc23)CC1 (stereo not shown) [Example 4L, 4-(1-(2-chloro-6-(trifluoromethyl)benzoyl)-6-(morpholine-4-carbonyl)-1H-indazol-3-yl)cyclohex-3-enecarboxylic acid] — 9-fold higher, 36 nM
- O=C(O)C1CC=C(c2cn(C(=O)c3c(Cl)cccc3C(F)(F)F)c3cccc(F)c23)CC1 (stereo not shown) [Example 5A, 4-(1-(2-chloro-6-(trifluoromethyl)benzoyl)-4-fluoro-1H-indol-3-yl)cyclohex-3-enecarboxylic acid] — the same, 4 nM
- O=C(O)C1CC=C(c2nn(C(=O)c3c(Cl)cccc3C(F)(F)F)c3ccccc23)CC1 (stereo not shown) [Example 1H, 4-(1-(2-chloro-6-(trifluoromethyl)benzoyl)-1H-indazol-3-yl)cyclohex-3-enecarboxylic acid] — 5-fold higher, 20 nM
- O=C(O)C1CC=C(c2nn(C(=O)c3c(Cl)cccc3C(F)(F)F)c3cc(C(=O)N4CC(F)(F)C4)ccc23)CC1 (stereo not shown) [Example 4A, 4-(1-(2-chloro-6-(trifluoromethyl)benzoyl)-6-(3,3-difluoroazetidine-1-carbonyl)-1H-indazol-3-yl)cyclohex-3-enecarboxylic acid] — within 1.5-fold, 5 nM
- COCCN(C)C(=O)c1ccc2c(C3=CCC(C(=O)O)CC3)nn(C(=O)c3c(Cl)cccc3C(F)(F)F)c2c1 (stereo not shown) [Example 4V, 4-(1-(2-chloro-6-(trifluoromethyl)benzoyl)-6-((2-methoxyethyl)(methyl)carbamoyl)-1H-indazol-3-yl)cyclohex-3-enecarboxylic acid] — 7.8-fold higher, 31 nM
- COC1CN(C(=O)c2ccc3c(C4=CCC(C(=O)O)CC4)nn(C(=O)c4c(Cl)cccc4C(F)(F)F)c3c2)C1 (stereo not shown) [Example 4E, 4-(1-(2-chloro-6-(trifluoromethyl)benzoyl)-6-(3-methoxyazetidine-1-carbonyl)-1H-indazol-3-yl)cyclohex-3-enecarboxylic acid] — 2-fold lower, 2 nM
- C[C@]1(C(=O)O)CC[C@H](c2nn(C(=O)c3c(Cl)cccc3C(F)(F)F)c3cccc(F)c32)CC1 [Example 9A, (trans)-4-(1-(2-chloro-6-(trifluoromethyl)benzoyl)-4-fluoro-1H-indazol-3-yl)-1-methylcyclohexanecarboxylic acid] — 12-fold higher, 50 nM
- C[C@]1(c2nn(C(=O)c3c(Cl)cccc3C(F)(F)F)c3cccc(F)c32)CC[C@@H](C(=O)O)CC1 [Example 7C, (cis)-4-(1-(2-chloro-6-(trifluoromethyl)benzoyl)-4-fluoro-1H-indazol-3-yl)-4-methylcyclohexanecarboxylic acid] — 220-fold higher, 872 nM
- C[C@]1(C(=O)O)CC[C@@H](c2nn(C(=O)c3c(Cl)cccc3C(F)(F)F)c3cccc(F)c32)CC1 [Example 9B, (cis)-4-(1-(2-chloro-6-(trifluoromethyl)benzoyl)-4-fluoro-1H-indazol-3-yl)-1-methylcyclohexanecarboxylic acid] — 1300-fold higher, 5020 nM
- O=C(O)C1CC=C(c2nn(C(=O)c3c(Cl)cccc3C(F)(F)F)c3cccc(F)c23)CC1O (stereo not shown) [Example 6B, 4-(1-(2-chloro-6-(trifluoromethyl)benzoyl)-4-fluoro-1H-indazol-3-yl)-6-hydroxycyclohex-3-enecarboxylic acid] — 3.8-fold higher, 15 nM
- O=C(NCCO)c1ccc2c(C3=CCC(C(=O)O)CC3)nn(C(=O)c3c(Cl)cccc3C(F)(F)F)c2c1 (stereo not shown) [Example 1D, 4-(1-(2-chloro-6-(trifluoromethyl)benzoyl)-6-(2-hydroxyethylcarbamoyl)-1H-indazol-3-yl)cyclohex-3-enecarboxylic acid] — 190-fold higher, 774 nM
- Cc1cccc(Cl)c1C(=O)n1nc(C2=CCC(C(=O)O)CC2)c2c(F)cccc21 (stereo not shown) [Example 1K, 4-(1-(2-chloro-6-methylbenzoyl)-4-fluoro-1H-indazol-3-yl)cyclo-hex-3-enecarboxylic acid] — 7.8-fold higher, 31 nM
- CC1(C(=O)O)CC=C(c2nn(C(=O)c3c(Cl)cccc3C3CC3)c3cccc(F)c23)CC1 (stereo not shown) [Example 1J, 4-(1-(2-chloro-6-cyclopropylbenzoyl)-4-fluoro-1H-indazol-3-yl)-1-methylcyclohex-3-enecarboxylic acid] — 1.8-fold higher, 7 nM
- CN(C)C(=O)c1ccc2c(C3=CCC(C(=O)O)CC3)nn(C(=O)c3c(Cl)cccc3C(F)(F)F)c2c1 (stereo not shown) [Example 1A, 4-(1-(2-chloro-6-(trifluoromethyl)benzoyl)-6-(dimethylcarbamoyl)-1H-indazol-3-yl)cyclohex-3-enecarboxylic acid] — 4.5-fold higher, 18 nM
- CNCC(CO)OC(=O)c1ccc2c(C3=CCC(C(=O)O)CC3)nn(C(=O)c3c(Cl)cccc3C(F)(F)F)c2c1 (stereo not shown) [Example 4Z, 4-(1-(2-chloro-6-(trifluoromethyl)benzoyl)-6-(((1-hydroxy-3-(methylamino)propan-2-yl)oxy)carbonyl)-1H-indazol-3-yl)cyclohex-3-enecarboxylic acid] — 64-fold higher, 258 nM
- C[C@H]1COCCN1C(=O)c1ccc2c(C3=CCC(C(=O)O)CC3)nn(C(=O)c3c(Cl)cccc3C(F)(F)F)c2c1 (stereo partly drawn) [Example 4O, 4-(1-(2-chloro-6-(trifluoromethyl)benzoyl)-6-((S)-3-methylmorpholinc-4-carbonyl)-1H-indazol-3-yl)cyclohex-3-enecarboxylic acid] — 77-fold higher, 308 nM
